Results from patent publication US20260130933A1, “PHARMACEUTICAL COMPOSITION FOR PREVENTION OR TREATMENT OF NEPHROPATHY AND/OR DIABETES MELLITUS, COMPRISING ENAVOGLIFLOZIN” (DAEWOONG PHARMACEUTICAL CO., LTD., priority 2022, published 2026).

Assay: Example 3: phase 3 trial, enavogliflozin 0.3 mg vs dapagliflozin 10 mg once a day for 24 weeks added to metformin and gemigliptin in patients with type 2 diabetes (same endpoints, rescue drug)
Assay type: in vivo, human
Details: week 18
Method: 1) when Metformin (≥1,000 mg/Day) was Administered at a Constant Dose for at Least 8 Weeks Prior to Pre-Visit (Pre-Screening) • Metformin (≥1,000 mg/day) and gemigliptin (50 mg/day) were co-administered during the 8-week stabilization period. […] 4) when Metformin (≥1,000 mg/Day) and Gemigliptin (50 mg/Day) were Co-Administered at Constant Doses for at Least 8 Weeks Prior to Pre-Visit (Prescreening) • Without a separate stabilization period, Pre-visit (pre-screening) was Visit 1 (screening).
Subjects who met the inclusion/exclusion criteria continued to receive metformin and gemigliptin while receiving a placebo of the clinical trial drug in a single-blind (subject-blinded) state for a 2-week run-in period.
Here, the randomized subjects were stratified according to the administration therapy (co-administration with two or less agents (one or two agents) or three or more agents) of a conventional hypoglycemic agent (before washout of another hypoglycemic agent) within 24 weeks prior to obtaining written informed consent and by an HbA1c value (<8% or ≥8%) at Visit 1 (screening) measured in the central laboratory.
The randomized subjects were administered two tablets of the clinical trial drug corresponding to each administration group once a day, and then visited the institution at weeks 6, 12, 18, and 24 during the 24-week administration period to conduct efficacy and safety assessments. In addition, during the clinical trial period, they were instructed to exercise regularly and control their diet without changing their daily life patterns.
• 1) Change in HbA1c at week 24 after administration of clinical trial drug compared to Visit 2 (randomization)
• 1) Change in HbA1c at each time point of weeks 6, 12, and 18 after administration of clinical trial drug compared to Visit 2 (randomization) • 2) Change in FPG at each time point of weeks 6, 12, 18, and 24 after administration of clinical trial drug compared to Visit 2 (randomization) • 3) Proportion of subjects achieving HbA1c<7% at each time point of weeks 6, 12, 18, and 24 after administration of clinical trial drug • 4) Proportion of subjects achieving HbA1c<6.5% at each time point of weeks 6, 12, 18, and 24 after administration of clinical trial drug • 5) Proportion of subjects achieving therapeutic response (HbA1c change (HbA1c at Visit 2—HbA1c at each evaluation time point)>0.5% or HbA1c<7% at each evaluation time point compared to Visit 2 (randomization)) at each time point of weeks 6, 12, 18, and 24 after administration of clinical trial drug • 6) Proportion of subjects achieving therapeutic response (HbA1c change (HbA1c at Visit 2—HbA1c at each evaluation time point)>0.7% or HbA1c<7% at each evaluation time point compared to Visit 2 (randomization)) at each time point of weeks 6, 12, 18, and 24 after administration of clinical trial drug • 7) Proportion of subjects achieving therapeutic response (HbA1c change (HbA1c at Visit 2—HbA1c at each evaluation time point)>1% or HbA1c<7% at each evaluation time point compared to Visit 2 (randomization)) at each time point of weeks 6, 12, 18, and 24 after administration of clinical trial drug

[1] = modified per-protocol set 2, enavogliflozin 0.3 mg, dapagliflozin 10 mg
[2] = per-protocol set, enavogliflozin 0.3 mg vs dapagliflozin 10 mg
[3] = per-protocol set, enavogliflozin 0.3 mg, dapagliflozin 10 mg

OC[C@H]1O[C@@H](c2cc(Cc3ccc(C4CC4)cc3)c(Cl)c3c2CCO3)[C@H](O)[C@@H](O)[C@@H]1O [Enavogliflozin, (2S,3R,4R,5S,6R)-2-(7-chloro-6 (4-cyclopropylbenzyl)-2,3-dihydrobenzofuran-4-yl)-6-(hydroxymethyl)tetrahydro-2H-pyran-3,4,5-triol]
Change from baseline in diastolic blood pressure, Median (modified per-protocol set 2): −5.00 mmHg | Diastolic blood pressure, Mean (modified per-protocol set 2): 72.53 mmHg | Diastolic blood pressure, Median (modified per-protocol set 2): 72.00 mmHg | Change from baseline in systolic blood pressure, ANCOVA LS mean difference (modified per-protocol set 2, enavogliflozin 0.3 mg vs dapagliflozin 10 mg): −1.66 mmHg | Change from baseline in systolic blood pressure, ANCOVA LS mean [1]: −6.82 mmHg | Change from baseline in systolic blood pressure, Mean [1]: −7.37 mmHg | Change from baseline in systolic blood pressure, Median [1]: −7.00 mmHg | Systolic blood pressure, Mean [1]: 119.95 mmHg | Systolic blood pressure, Median [1]: 119.00 mmHg | Adiponectin, Mean (per-protocol set): 7.03 µg/mL | Adiponectin, Median (per-protocol set): 6.26 µg/mL | Change from baseline in HOMA-IR, ANCOVA LS mean (per-protocol set): −1.14 | Change from baseline in HOMA-IR, LS mean difference (enavogliflozin − dapagliflozin) (per-protocol set): −0.13 | Change from baseline in HOMA-IR, Mean (per-protocol set): −1.16 | Change from baseline in HOMA-IR, Median (per-protocol set): −0.82 | Change from baseline in HOMA-β, ANCOVA LS mean (per-protocol set): 5.97 | Change from baseline in HOMA-β, LS mean difference (enavogliflozin − dapagliflozin) (per-protocol set): 1.48 | Change from baseline in HOMA-β, Mean (per-protocol set): 6.09 | Change from baseline in HOMA-β, Median (per-protocol set): 4.10 | Change from baseline in UACR, ANCOVA LS mean (per-protocol set): -11.08 g/kg | Change from baseline in UACR, LS mean difference (enavogliflozin − dapagliflozin) (per-protocol set): -2.18 g/kg | Change from baseline in UACR, Mean (per-protocol set): -12.07 g/kg | Change from baseline in UACR, Median (per-protocol set): -1.50 g/kg | Change from baseline in UGCR, ANCOVA LS mean (per-protocol set): 58.74 mg/mg | Change from baseline in UGCR, LS mean difference (enavogliflozin − dapagliflozin) (per-protocol set): 13.34 mg/mg | Change from baseline in UGCR, Mean (per-protocol set): 57.23 mg/mg | Change from baseline in UGCR, Median (per-protocol set): 54.56 mg/mg | Change from baseline in adiponectin, ANCOVA LS mean (per-protocol set): 0.78 µg/mL | Change from baseline in adiponectin, LS mean difference (enavogliflozin − dapagliflozin) (per-protocol set): 0.42 µg/mL | Change from baseline in adiponectin, Mean (per-protocol set): 0.80 µg/mL | Change from baseline in adiponectin, Median (per-protocol set): 0.60 µg/mL | Change from baseline in leptin, ANCOVA LS mean (per-protocol set): -1.46 ng/mL | Change from baseline in leptin, LS mean difference (enavogliflozin − dapagliflozin) (per-protocol set): -0.40 ng/mL | Change from baseline in leptin, Mean (per-protocol set): -1.63 ng/mL | Change from baseline in leptin, Median (per-protocol set): -0.89 ng/mL | HOMA-IR (insulin resistance), Mean (per-protocol set): 1.74 | HOMA-IR (insulin resistance), Median (per-protocol set): 1.42 | HOMA-β (beta-cell function), Mean (per-protocol set): 49.26 | HOMA-β (beta-cell function), Median (per-protocol set): 40.00 | Leptin, Mean (per-protocol set): 8.87 ng/mL | Leptin, Median (per-protocol set): 5.86 ng/mL | UACR, Mean (per-protocol set): 25.02 g/kg | UACR, Median (per-protocol set): 11.30 g/kg | UGCR, Mean (per-protocol set): 57.96 mg/mg | UGCR, Median (per-protocol set): 54.71 mg/mg | Achieving HbA1c target of <6.5%, odds ratio (logistic regression model) [2]: 1.20 | Achieving HbA1c target of <7%, odds ratio (logistic regression model) [2]: 1.36 | Change from baseline in FPG, ANCOVA LS mean difference [2]: -4.22 mg/dL | Change from baseline in HbA1c, ANCOVA LS mean difference [2]: −0.07 % p | Change from baseline in body weight, ANCOVA LS mean difference [2]: -0.15 kg | Change from baseline in fasting C-peptide, ANCOVA LS mean difference [2]: -0.02 ng/mL | Therapeutic glycemic response 1, odds ratio (logistic regression model) [2]: 1.02 | Therapeutic glycemic response 2, odds ratio (logistic regression model) [2]: 1.09 | Therapeutic glycemic response 3, odds ratio (logistic regression model) [2]: 1.22 | Body weight, Mean [3]: 66.18 kg | Change from baseline in FPG, ANCOVA LS mean [3]: -27.77 mg/dL | Change from baseline in FPG, Mean [3]: -28.00 mg/dL | Change from baseline in FPG, Median [3]: -24.00 mg/dL | Change from baseline in HbA1c, ANCOVA LS mean [3]: −0.83 % p | Change from baseline in HbA1c, Mean [3]: −0.84 % p | Change from baseline in HbA1c, Median [3]: −0.72 % p | Change from baseline in body weight, ANCOVA LS mean [3]: -3.16 kg | Change from baseline in body weight, Mean [3]: -3.10 kg | Change from baseline in body weight, Median [3]: -2.90 kg | Change from baseline in fasting C-peptide, ANCOVA LS mean [3]: -0.08 ng/mL | Change from baseline in fasting C-peptide, Mean [3]: -0.09 ng/mL | Change from baseline in fasting C-peptide, Median [3]: -0.10 ng/mL | FPG, Mean [3]: 111.10 mg/dL | FPG, Median [3]: 109.00 mg/dL | Fasting C-peptide, Mean [3]: 0.64 ng/mL | Fasting C-peptide, Median [3]: 0.60 ng/mL | HbA1c, Mean [3]: 6.95%
